The subject of data set [1] is HuT 78 cell adhesion to 5dICAM-Ig. The data set can be described thus: Human T-cell adhesion assay (HuT 78). It counts as cell-based. The note with it: HuT78, HuT 78 adhesion to 5dICAM-Ig. Here is the method: The T-cell adhesion assay was performed using the human T-lymphoid cell line HuT 78 (ATCC TIB-161). Goat anti-HuIgG(Fc) was diluted to 2 μg/ml in PBS and 96-well plates were coated with 50 μl/well at 37° C. for 1 h. Plates were washed with PBS and blocked for 1 h at room temperature with 1% BSA in PBS. 5 domain ICAM-Ig was diluted to 100 ng/ml in PBS and 50 μl/well was added to the plates 0/N at 4° C. HuT 78 cells were centrifuged at 100 g and the cell pellet was treated with 5 mM EDTA for ˜5′ at 37° C. in a 5% CO2 incubator. Cells were washed in 0.14 M NaCl, 0.02 M Hepes, 0.2% glucose and 0.1 mM MnCl2 (assay buffer) and centrifuged. The cells were resuspended in assay buffer to 3.0×10^6 c/ml. Inhibitors were diluted in assay buffer to a 2× final concentration and pre-incubated with HuT78 cells for 30′ at room temperature. 100 μl/well of cells and inhibitors were added to the plates and incubated at room temperature for 1 h. 100 μl/well PBS was added and the plates were sealed and centrifuged inverted at 100 g for 5′. Unattached cells were flicked out of the plate and excess PBS was blotted on a paper towel. 60 μl/well p-nitrophenyl n-acetyl-β-D-glucosaminide (0.257 g to 100 ml citrate buffer) was added to the plate and incubated for 1.5 h at 37° C. The enzyme reaction was stopped with 90 μI/well 50 mM glycine/5 mM EDTA and read on a platereader at […]. HUT 78 cell adhesion to 5dICAM-Ig was measured using the p-nitrophenyl n-acetyl-.β-D-glucosaminide method of Landegren, U. (1984). J. Immunol. Methods 57, 379-388.

The nature of the next data set: Solubility. It is filed as physicochemical.

A value given as a limit tells only on which side of the number the result lay.

This note sets out measurements from US10960087B2, “Compositions and methods for treatment of diabetic retinopathy” (NOVARTIS AG, priority 2007, dated 2021).

Usually EC50 stands for the concentration at which the effect is half-maximal. High values mean weaker potency, low ones greater potency. As to `CS(=O)(=O)c1ccn(C[C@H](NC(=O)c2c(Cl)cc3c(c2Cl)CCN(C(=O)c2ccc4ccoc4c2)C3)C(=O)O)c1` [Compound 22], in data set [1], the EC50 was at most 50 nM.
In general, solubility refers to the concentration that dissolves in the medium under given conditions. Low readings indicate little dissolved substance, high ones much dissolved substance. Take `CS(=O)(=O)c1ccc(C[C@H](NC(=O)c2c(Cl)cc3c(c2Cl)CCN(C(=O)c2cc4cccnc4[nH]2)C3)C(=O)O)o1` [Compound 20]: the solubility in “Solubility” was over 100 mg/mL. Further, in data set [1], the EC50 was at most 50 nM.
Take `CS(=O)(=O)c1cccc(C[C@H](NC(=O)c2c(Cl)cc3c(c2Cl)CCN(C(=O)c2ccc(Cl)cc2)C3)C(=O)O)c1` [Compound 28]: the EC50 in data set [1] was at most 50 nM.
Compound `CC(C)n1cc(C[C@H](NC(=O)c2c(Cl)cc3c(c2Cl)CCN(C(=O)c2ccc(Cl)cc2)C3)C(=O)O)nn1` [Compound 24] displayed an EC50 in data set [1] of at most 100 nM.
`CS(=O)(=O)Nc1ccccc1NC[C@H](NC(=O)c1c(Cl)cc2c(c1Cl)CCN(C(=O)c1ccc(Cl)cc1)C2)C(=O)O` [Compound 39] came in with an EC50 in data set [1] of at most 50 nM.
In the case of `CS(=O)(=O)c1cc(F)cc(C[C@H](NC(=O)c2c(Cl)cc3c(c2Cl)CCN(C(=O)c2ccc4ccoc4c2)C3)C(=O)O)c1` [Compound 25], the solubility in “Solubility” was over 100 mg/mL. The compound further returned an EC50 in data set [1] of at most 50 nM.
With `O=C(NC[C@H](NC(=O)c1c(Cl)cc2c(c1Cl)CCN(C(=O)c1ccc(Cl)cc1)C2)C(=O)O)c1ccccc1` [Compound 5], in data set [1], the EC50 was at most 50 nM.
`CS(=O)(=O)CCNC[C@H](NC(=O)c1c(Cl)cc2c(c1Cl)CCN(C(=O)c1ccc(Cl)cc1)C2)C(=O)O` [Compound 42] showed a solubility in “Solubility” of over 100 mg/mL. In addition, the EC50 in data set [1] is at most 3000 nM.
`N#CN=C(NC[C@H](NC(=O)c1c(Cl)cc2c(c1Cl)CCN(C(=O)/C=C/c1ccccc1O)C2)C(=O)O)N1CC[C@H](O)C1` [Compound 26]: the EC50 in data set [1] is at most 50 nM.
The same measure, in the same setting: with `CS(=O)(=O)n1cc(C[C@H](NC(=O)c2c(Cl)cc3c(c2Cl)CCN(C(=O)/C=C/c2ccco2)C3)C(=O)O)c2ccccc21` [Compound 40] the figure was at most 300 nM.
Turning to `CS(=O)(=O)c1ccc(C[C@H](NC(=O)c2c(Cl)cc3c(c2Cl)CCN(C(=O)c2ccc4ccoc4c2)C3)C(=O)O)o1` [Compound 41], the solubility in the data set “Solubility” is over 100 mg/mL. The same compound came in with an EC50 in data set [1] of at most 50 nM.
With `O=C(NC[C@H](NC(=O)c1c(Cl)cc2c(c1Cl)CCN(C(=O)c1cc3ccccc3o1)C2)C(=O)O)c1cccs1` [Compound 38], the EC50 in data set [1] is at most 50 nM.
Consider `O=C(NC[C@H](NC(=O)c1c(Cl)cc2c(c1Cl)CCN(C(=O)c1cc(O)nc3ccccc13)C2)C(=O)O)c1cccs1` [Compound 35], for which the solubility in “Solubility” was over 100 mg/mL. The EC50 in data set [1] was at most 50 nM.
For `O=C(NC[C@H](NC(=O)c1c(Cl)cc2c(c1Cl)CCN(C(=O)c1cccc(Cl)c1)C2)C(=O)O)c1cccs1` [Compound 2], in that order: over 100 mg/mL and at most 50 nM.
The compound `O=C(N[C@@H](Cn1cc(CO)nn1)C(=O)O)c1c(Cl)cc2c(c1Cl)CCN(C(=O)c1ccc(Cl)cc1)C2` [Compound 8] had an EC50 in data set [1] of at most 100 nM.
In the data set “Solubility”, `CS(=O)(=O)c1cccc(C[C@H](NC(=O)c2c(Cl)cc3c(c2Cl)CCN(C(=O)c2cc4ccccc4[nH]2)C3)C(=O)O)c1` [Compound 36] came in with a solubility of over 50 mg/mL. The EC50 in data set [1] was at most 50 nM.
Taken in the same sequence, the figures for `CS(=O)(=O)c1cccc(C[C@H](NC(=O)c2c(Cl)cc3c(c2Cl)CCN(C(=O)/C=C/c2ccccc2F)C3)C(=O)O)c1` [Compound 27] were over 100 mg/mL and at most 50 nM.
With `O=C(NC[C@H](NC(=O)c1c(Cl)cc2c(c1Cl)CCN(C(=O)c1ccc3cc[nH]c3c1)C2)C(=O)O)c1cccs1` [Compound 13], the EC50 in data set [1] was at most 50 nM.
In data set [1], `CS(=O)(=O)c1cccc(C[C@H](NC(=O)c2c(Cl)cc(CNC(=O)/C=C/c3ccccc3O)cc2Cl)C(=O)O)c1` [Compound 43] showed an EC50 of at most 50 nM.
`O=C(NC[C@H](NC(=O)c1c(Cl)cc2c(c1Cl)CCN(C(=O)c1ccc(Cl)cc1)C2CO)C(=O)O)c1cccs1` (some centres unmarked) [Compound 17]: the EC50 in data set [1] is at most 50 nM.
Consider `CS(=O)(=O)c1cccc(C[C@H](NC(=O)c2c(Cl)cc3c(c2Cl)CCN(C(=O)c2ccc4ccoc4c2)C3)C(=O)O)c1` [Compound 12], for which the solubility in the data set “Solubility” was over 100 mg/mL. The compound further came in with an EC50 in data set [1] of at most 50 nM.
Compound `O=C(NC[C@H](NC(=O)c1c(Cl)cc2c(c1Cl)CCN(C(=O)c1ccc(Cl)c(Cl)c1)C2)C(=O)O)c1cccs1` [Compound 18] yielded an EC50 in data set [1] of at most 50 nM.
In “Solubility”, `CS(=O)(=O)c1cccc(C[C@H](NC(=O)c2c(Cl)cccc2Cl)C(=O)O)c1` [Compound 46] gave a solubility of over 100 mg/mL. Also, the EC50 in data set [1] was at most 100 nM.
Taken in the same sequence, the figures for `CS(=O)(=O)c1cccc(C[C@H](NC(=O)c2c(Cl)cc3c(c2Cl)CCN(C(=O)c2cc4cccnc4[nH]2)C3)C(=O)O)c1` [Compound 19] were over 50 mg/mL and at most 50 nM.
For the compound `O=C(N[C@@H](Cc1c[nH]cn1)C(=O)O)c1c(Cl)cc2c(c1Cl)CCN(C(=O)c1ccc(Cl)cc1)C2` [Compound 1], the EC50 in data set [1] is at most 300 nM.
Turning to `O=C(NC[C@H](NC(=O)c1c(Cl)cc2c(c1Cl)CCN(C(=O)c1ccc3cn[nH]c3c1)C2)C(=O)O)c1cccs1` [Compound 34], the EC50 in data set [1] is at most 50 nM.
Still for that read-out and setting: under `C[S+]([O-])c1cncc(C[C@H](NC(=O)c2c(Cl)cc3c(c2Cl)CCN(C(=O)c2ccc4ccoc4c2)C3)C(=O)O)c1` (some centres unmarked) [Compound 14] stands at most 50 nM.
The same measure, in the same setting: with `O=C(NC[C@H](NC(=O)c1cc2c(cc1Cl)C(=O)N(Cc1ccccc1)CC2)C(=O)O)c1cccs1` [Compound 11] the figure was at most 3000 nM; with `CS(=O)(=O)c1cccc(C[C@H](NC(=O)c2c(Cl)cc(CCC(O)c3ccc(Cl)cc3)cc2Cl)C(=O)O)c1` (some centres unmarked) [Compound 37], at most 100 nM; with `C[C@H](O)c1cccc(C[C@H](NC(=O)c2c(Cl)cc3c(c2Cl)CCN(C(=O)c2ccc4cn[nH]c4c2)C3)C(=O)O)c1` [Compound 48], at most 50 nM.
As for `CN1CCN(C(=O)[C@H](CNC(=O)c2cccs2)NC(=O)c2c(Cl)cc3c(c2Cl)CCN(C(=O)c2ccc(Cl)cc2)C3)CC1` [Compound 10], the solubility in “Solubility” is over 100 mg/mL.
In data set [1], `CS(=O)(=O)N1CCC=C(C[C@H](NC(=O)c2c(Cl)cc3c(c2Cl)CCN(C(=O)c2ccc4ccoc4c2)C3)C(=O)O)C1` [Compound 23] yielded an EC50 of at most 50 nM.
Same read-out and setting: under `CP(C)(=O)c1cccc(C[C@H](NC(=O)c2c(Cl)cc3c(c2Cl)CCN(C(=O)c2ccc4ccoc4c2)C3)C(=O)O)c1` [Compound 49] stands at most 100 nM; under `CS(=O)(=O)c1nc(C[C@H](NC(=O)c2c(Cl)cc3c(c2Cl)CCN(C(=O)c2ccc(Cl)cc2)C3)C(=O)O)c[nH]1` [Compound 7], at most 50 nM; under `CS(=O)(=O)c1cncc(C[C@H](NC(=O)c2c(Cl)cc3c(c2Cl)CCN(C(=O)c2ccc4ccoc4c2)C3)C(=O)O)c1` [Compound 33], at most 50 nM.
Still for that read-out and setting: under `O=C(CCc1cc(Cl)c(C(=O)N[C@@H](CNC(=O)c2cccs2)C(=O)O)c(Cl)c1)c1cccc(O)c1` [Compound 47] stands at most 50 nM; under `O=C(N[C@@H](CNc1ncnc2ccccc12)C(=O)O)c1c(Cl)cc2c(c1Cl)CCN(C(=O)c1ccc(Cl)cc1)C2` [Compound 3], at most 50 nM; under `Cc1oc(C[C@H](NC(=O)c2c(Cl)cc3c(c2Cl)CCN(C(=O)c2ccc4ccoc4c2)C3)C(=O)O)cc1S(C)(=O)=O` [Compound 30], at most 50 nM.
Still for that read-out and setting: under `C=C(C)c1cn(C[C@H](NC(=O)c2c(Cl)cc3c(c2Cl)CCN(C(=O)c2ccc(Cl)cc2)C3)C(=O)O)nn1` [Compound 4] stands at most 100 nM.
